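Values below derive from 48-hour exposures of cells grown in 96-well plates, with endpoints linearly interpolated between the two concentrations bracketing the appropriate inhibition level. At the GI50, growth is halved. TGI: total growth inhibition.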
Key:
Assay in all cases: NCI-60 cell line screen, 48 h
UACC-62 melanoma = tested on: UACC-62 melanoma
UO-31 renal = tested on: UO-31 renal
MDA-MB-435 = tested on: MDA-MB-435
ACHN renal = tested on: ACHN renal
OVCAR-5 ovarian = tested on: OVCAR-5 ovarian
BT-549 breast = tested on: BT-549 breast
SK-MEL-5 melanoma = tested on: SK-MEL-5 melanoma
NCI/ADR-RES ovarian = tested on: NCI/ADR-RES ovarian
A498 renal = tested on: A498 renal
786-0 renal = tested on: 786-0 renal
SW-620 colon = tested on: SW-620 colon
RXF 393 renal = tested on: RXF 393 renal
MALME-3M melanoma = tested on: MALME-3M melanoma
PC-3 prostate = tested on: PC-3 prostate
NCI-H522 lung = tested on: NCI-H522 lung
COLO 205 colon = tested on: COLO 205 colon
OVCAR-3 ovarian = tested on: OVCAR-3 ovarian
U251 CNS = tested on: U251 CNS
NCI-H23 lung = tested on: NCI-H23 lung
LOX IMVI melanoma = tested on: LOX IMVI melanoma
UACC-257 melanoma = tested on: UACC-257 melanoma
HCT-116 colon = tested on: HCT-116 colon
HOP-92 NSCLC = tested on: HOP-92 NSCLC
DU-145 prostate = tested on: DU-145 prostate
HCC-2998 colon = tested on: HCC-2998 colon
KM12 colon = tested on: KM12 colon
OVCAR-8 ovarian = tested on: OVCAR-8 ovarian
CAKI-1 renal = tested on: CAKI-1 renal
HOP-62 NSCLC = tested on: HOP-62 NSCLC
SNB-19 CNS = tested on: SNB-19 CNS
A549 NSCLC = tested on: A549 NSCLC
HT29 colon = tested on: HT29 colon
SR leukemia = tested on: SR leukemia
SNB-75 CNS = tested on: SNB-75 CNS
TK-10 renal = tested on: TK-10 renal
CCRF-CEM leukemia = tested on: CCRF-CEM leukemia
HL-60(TB) leukemia = tested on: HL-60(TB) leukemia
K-562 leukemia = tested on: K-562 leukemia
SK-OV-3 ovarian = tested on: SK-OV-3 ovarian
MOLT-4 leukemia = tested on: MOLT-4 leukemia
SF-268 CNS = tested on: SF-268 CNS
SK-MEL-28 melanoma = tested on: SK-MEL-28 melanoma
NCI-H226 lung = tested on: NCI-H226 lung
SF-295 CNS = tested on: SF-295 CNS
OVCAR-4 ovarian = tested on: OVCAR-4 ovarian
EKVX NSCLC = tested on: EKVX NSCLC
SF-539 CNS = tested on: SF-539 CNS
M14 melanoma = tested on: M14 melanoma
IGROV1 ovarian = tested on: IGROV1 ovarian
SN12C renal = tested on: SN12C renal
MCF7 breast = tested on: MCF7 breast
RPMI-8226 leukemia = tested on: RPMI-8226 leukemia
T-47D breast = tested on: T-47D breast
HCT-15 colon = tested on: HCT-15 colon
HS 578T breast = tested on: HS 578T breast
MDA-MB-231 breast = tested on: MDA-MB-231 breast
NCI-H460 lung = tested on: NCI-H460 lung
SK-MEL-2 melanoma = tested on: SK-MEL-2 melanoma

## Cn1c(CCCC(=O)O)nc2cc(N(CCCl)CCCl)ccc21
UACC-62 melanoma
  GI50: 52.5 µM
  TGI: > 100 µM
UO-31 renal
  GI50: > 100 µM
  TGI: > 100 µM
MDA-MB-435
  GI50: > 75.5 µM
  TGI: > 100 µM
ACHN renal
  GI50: > 77.3 µM
  TGI: > 100 µM
OVCAR-5 ovarian
  GI50: > 100 µM
  TGI: > 100 µM
BT-549 breast
  GI50: > 77.5 µM
  TGI: > 100 µM
SK-MEL-5 melanoma
  GI50: > 71.6 µM
  TGI: > 100 µM
NCI/ADR-RES ovarian
  GI50: 98.2 µM
  TGI: > 100 µM
A498 renal
  GI50: > 32.6 µM
  TGI: > 75 µM
786-0 renal
  GI50: > 80.9 µM
  TGI: > 100 µM
SW-620 colon
  GI50: 78.4 µM
  TGI: > 100 µM
RXF 393 renal
  GI50: > 100 µM
  TGI: > 100 µM
MALME-3M melanoma
  GI50: 49.6 µM
  TGI: > 100 µM
PC-3 prostate
  GI50: > 100 µM
  TGI: > 100 µM
NCI-H522 lung
  GI50: > 93 µM
  TGI: > 100 µM
COLO 205 colon
  GI50: > 95.8 µM
  TGI: > 100 µM
OVCAR-3 ovarian
  GI50: > 66.2 µM
  TGI: > 93.3 µM
U251 CNS
  GI50: 72.7 µM
  TGI: > 100 µM
NCI-H23 lung
  GI50: 74.9 µM
  TGI: > 100 µM
LOX IMVI melanoma
  GI50: > 58.8 µM
  TGI: > 100 µM
UACC-257 melanoma
  GI50: > 94.7 µM
  TGI: > 100 µM
HCT-116 colon
  GI50: > 80.5 µM
  TGI: > 100 µM
HOP-92 NSCLC
  GI50: 33.5 µM
  TGI: > 93.3 µM
DU-145 prostate
  GI50: > 80.6 µM
  TGI: > 100 µM
HCC-2998 colon
  GI50: > 65.7 µM
  TGI: > 100 µM
KM12 colon
  GI50: > 100 µM
  TGI: > 100 µM
OVCAR-8 ovarian
  GI50: > 91.2 µM
  TGI: > 100 µM
CAKI-1 renal
  GI50: 53.2 µM
  TGI: > 86.8 µM
HOP-62 NSCLC
  GI50: > 76.3 µM
  TGI: > 100 µM
SNB-19 CNS
  GI50: 97.9 µM
  TGI: > 100 µM
A549 NSCLC
  GI50: > 100 µM
  TGI: > 100 µM
HT29 colon
  GI50: > 100 µM
  TGI: > 100 µM
SR leukemia
  GI50: 40.4 µM
  TGI: > 100 µM
SNB-75 CNS
  GI50: > 83.5 µM
  TGI: > 100 µM
TK-10 renal
  GI50: > 91.3 µM
  TGI: > 100 µM
CCRF-CEM leukemia
  GI50: 28.1 µM
  TGI: > 77.7 µM
HL-60(TB) leukemia
  GI50: > 51.2 µM
  TGI: > 85.3 µM
K-562 leukemia
  GI50: > 100 µM
  TGI: > 100 µM
SK-OV-3 ovarian
  GI50: > 86.4 µM
  TGI: > 100 µM
MOLT-4 leukemia
  GI50: 3.6 µM
  TGI: 22.6 µM
SF-268 CNS
  GI50: 68.5 µM
  TGI: > 100 µM
SK-MEL-28 melanoma
  GI50: > 100 µM
  TGI: > 100 µM
NCI-H226 lung
  GI50: > 66.2 µM
  TGI: > 100 µM
SF-295 CNS
  GI50: > 64.4 µM
  TGI: > 100 µM
OVCAR-4 ovarian
  GI50: > 100 µM
  TGI: > 100 µM
EKVX NSCLC
  GI50: > 100 µM
  TGI: > 100 µM
SF-539 CNS
  GI50: 65.1 µM
  TGI: > 94.1 µM
M14 melanoma
  GI50: > 65.5 µM
  TGI: > 100 µM
IGROV1 ovarian
  GI50: 70 µM
  TGI: > 100 µM
SN12C renal
  GI50: 45.1 µM
  TGI: > 100 µM
MCF7 breast
  GI50: 69.2 µM
  TGI: > 100 µM
RPMI-8226 leukemia
  GI50: > 85.3 µM
  TGI: > 100 µM
T-47D breast
  GI50: 56.2 µM
  TGI: > 100 µM
HCT-15 colon
  GI50: > 100 µM
  TGI: > 100 µM
HS 578T breast
  GI50: > 83.3 µM
  TGI: > 100 µM
MDA-MB-231 breast
  GI50: > 69.6 µM
  TGI: > 100 µM
NCI-H460 lung
  GI50: 58.7 µM
  TGI: > 100 µM
SK-MEL-2 melanoma
  GI50: > 100 µM
  TGI: > 100 µM
